{
  "source": "patent US20240391948A1",
  "about": "“NOVEL COMPOUND THAT INHIBITS TNF-ALPHA GENERATION AND INFLAMMASOME ACTIVITY AND PREPARATION METHOD THEREFOR” (SHAPERON INC., priority 2021, published 2024)",
  "assay_type_in_all_cases": "cell-based",
  "key": {"[1]": {"system": "J774A.1 (Mouse BALB/c monocyte macrophage cell line) cells", "experiment": "LPS+ATP-induced IL-1β secretion inhibition in J774A.1 cells", "conditions": "J774.A1, 1 μM compound, graded compared to taurodeoxycholic acid (positive control), read-out: IL-1β production inhibition grade", "outline": "(§1)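 Mouse J774A.1 macrophages treated with 1 μM compound; TNF-α secretion measured after LPS stimulation and IL-1β secretion after LPS+ATP stimulation. Suppression graded against taurodeoxycholic acid: A over 100%, B 50–100%, C 20–50%, D under 20%.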"}, "[2]": {"system": "J774A.1 (Mouse BALB/c monocyte macrophage cell line) cells", "experiment": "LPS-induced TNF-α secretion inhibition in J774A.1 cells", "conditions": "J774.A1, 1 μM compound, graded compared to taurodeoxycholic acid (positive control), read-out: TNF-α production inhibition grade", "outline": "as §1"}, "[3]": {"system": "U937 cells (human monocytic cell line)", "experiment": "Pam2CSK4-induced TNF-α secretion inhibition in PMA-differentiated U937 cells", "conditions": "U-937, U937 cells differentiated with PMA, read-out: TNF-α production inhibition grade (IC50)", "outline": "(§2)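 U937 cells were PMA-differentiated into macrophages and treated with compound before inflammatory stimulus. TNF-α secretion was induced with Pam2CSK4 and IL-1β secretion with BzATP. IC50 (μM) values are graded A-D, with separate cut-offs per cytokine.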"}, "[4]": {"system": "U937 cells (human monocytic cell line)", "experiment": "BzATP-induced IL-1β secretion inhibition in PMA-differentiated U937 cells", "conditions": "U-937, U937 cells differentiated with PMA, read-out: IL-1β production inhibition grade (IC50)", "outline": "as §2"}},
  "data": [
    {"smiles": "C[C@H](CCC(=O)N(CCS(=O)(=O)O)Cc1cccnc1)[C@H]1CC[C@H]2[C@@H]3[C@H](O)C[C@@H]4C[C@H](O)CC[C@]4(C)[C@H]3C[C@H](O)[C@]12C", "note": "[NC20036]", "values": [
      {"measurement": "inhibition at 1 µM", "setting": "[1]", "value": "< 20", "unit": "%"},
      {"measurement": "inhibition at 1 µM", "setting": "[2]", "value": "< 20", "unit": "%"},
      {"measurement": "IC50", "setting": "[3]", "value": "500 to 1000", "unit": "nM"},
      {"measurement": "IC50", "setting": "[4]", "value": "50 to 100", "unit": "nM"}
    ]},
    {"smiles": "CC[C@H]1[C@@H](O)[C@@H]2[C@H](CC[C@]3(C)[C@@H]([C@H](C)CCC(=O)N4CCC[C@@H]4CS(=O)(=O)O)CC[C@@H]23)[C@@]2(C)CC[C@@H](O)C[C@@H]12", "note": "[NC40020]", "values": [
      {"measurement": "inhibition at 1 µM", "setting": "[1]", "value": "> 100", "unit": "%"},
      {"measurement": "inhibition at 1 µM", "setting": "[2]", "value": "< 20", "unit": "%"},
      {"measurement": "IC50", "setting": "[3]", "value": "1000 to 2000", "unit": "nM"},
      {"measurement": "IC50", "setting": "[4]", "value": "100 to 200", "unit": "nM"}
    ]},
    {"smiles": "CC[C@H]1[C@@H](O)[C@@H]2[C@H](CC[C@]3(C)[C@@H]([C@H](C)CCC(=O)N(C)CCS(=O)(=O)O)CC[C@@H]23)[C@@]2(C)CC[C@@H](O)C[C@@H]12", "note": "[NC40004]", "values": [
      {"measurement": "inhibition at 1 µM", "setting": "[1]", "value": "50 to 100", "unit": "%"},
      {"measurement": "inhibition at 1 µM", "setting": "[2]", "value": "< 20", "unit": "%"},
      {"measurement": "IC50", "setting": "[3]", "value": "≥ 2000", "unit": "nM"},
      {"measurement": "IC50", "setting": "[4]", "value": "≥ 200", "unit": "nM"}
    ]}
  ]
}
